# From patent US12383545B1, “Treatment of migraine” (priority 2018, dated 2025)
# Tested on: patients with migraine (4 to 14 migraine/probable migraine headache days)
# Experiment: Example 5: randomized double-blind placebo-controlled 12-week dose-regimen study (QD and BID), migraine/probable migraine (MPM) headache days efficacy
# Assay type: in vivo, human
# Settings: mITT population
# Procedure: In a multicenter, randomized, double-blind, placebo-controlled, parallel-group study designed to evaluate the efficacy, safety, and tolerability of multiple doses and doses regimens of atogepant for the prevention of migraine. The patients were randomized (2:1:2:1:2:1) to 1 of 6 treatment groups: placebo, atogepant 10 mg QD, atogepant 30 mg QD, atogepant 30 mg BID, atogepant 60 mg QD, and atogepant 60 mg BID.
# This study consisted of a 4-week screening and baseline period and a 12-week double-blind treatment period, which was followed by a 4-week safety follow-up period. Total study duration is 20-weeks.
# To be randomized, eligible patients had to be 18 to 75 years of age (inclusive), have a history of migraine with or without aura for at least 1 year consistent with a diagnosis according to the International Classification of Headache Disorders criteria, 3rd edition, beta version, have experienced 4 to 14 migraine/probable migraine headache days and <15 headache days in the 28-day baseline period. Patients who had clinically significant hematologic, endocrine, cardiovascular, cerebrovascular, pulmonary, renal, hepatic, gastrointestinal, or neurologic disease were excluded from the study.
# A total of 834 patients were randomized to double-blind treatment (ITT population), and 825 patients took at least 1 dose of double-blind IP (safety population). […] The primary efficacy variable was the change from baseline in mean monthly migraine/probable migraine headache days across the 12-week treatment period. The secondary efficacy variables were the change from baseline in mean monthly headache days across the 12-week treatment period, proportion of patients with at least a 50% reduction in mean monthly migraine/probable migraine headache days across the 12-week treatment period, and the change from baseline in mean monthly acute medication use days across the 12-week treatment period.
# [1] = Weeks 1-4, Atogepant 60 mg BID (N = 87)
# [2] = Weeks 1-4, Atogepant 60 mg QD (N = 177)
# [3] = Weeks 5-8, Atogepant 10 mg QD (N = 92)
# [4] = Weeks 5-8, Atogepant 30 mg BID (N = 79)
# [5] = Weeks 5-8, Atogepant 30 mg QD (N = 182)
# [6] = Weeks 5-8, Atogepant 60 mg BID (N = 87)
# [7] = Weeks 5-8, Atogepant 60 mg QD (N = 177)
# [8] = Weeks 9-12, Atogepant 10 mg QD (N = 92)
# [9] = Weeks 9-12, Atogepant 30 mg BID (N = 79)
# [10] = Weeks 9-12, Atogepant 30 mg QD (N = 182)
# [11] = Weeks 9-12, Atogepant 60 mg BID (N = 87)
# [12] = Weeks 9-12, Atogepant 60 mg QD (N = 177)
smiles,measurement,setting,value
C[C@@H]1[C@H](c2c(F)ccc(F)c2F)C[C@H](NC(=O)c2cnc3c(c2)C[C@@]2(C3)C(=O)Nc3ncccc32)C(=O)N1CC(F)(F)F [atogepant],"Non-responders (at least 100% reduction in mean monthly MPM headache days not met), (%)",[1],(79.3) %
same,"Non-responders (at least 100% reduction in mean monthly MPM headache days not met), n",[1],69
same,"Odds ratio vs. Placebo, at least 100% reduction in mean monthly MPM headache days",[1],7.43
same,"Responders (at least 100% reduction in mean monthly MPM headache days), (%)",[1],(20.7) %
same,"Responders (at least 100% reduction in mean monthly MPM headache days), n",[1],18
same,"Non-responders (at least 100% reduction in mean monthly MPM headache days not met), (%)",[2],(85.2) %
same,"Non-responders (at least 100% reduction in mean monthly MPM headache days not met), n",[2],150
same,"Odds ratio vs. Placebo, at least 100% reduction in mean monthly MPM headache days",[2],4.94
same,"Responders (at least 100% reduction in mean monthly MPM headache days), (%)",[2],(14.8) %
same,"Responders (at least 100% reduction in mean monthly MPM headache days), n",[2],26
same,"Non-responders (at least 100% reduction in mean monthly MPM headache days not met), (%)",[3],(79.1) %
same,"Non-responders (at least 100% reduction in mean monthly MPM headache days not met), n",[3],68
same,"Odds ratio vs. Placebo, at least 100% reduction in mean monthly MPM headache days",[3],2.34
same,"Responders (at least 100% reduction in mean monthly MPM headache days), (%)",[3],(20.9) %
same,"Responders (at least 100% reduction in mean monthly MPM headache days), n",[3],18
same,"Non-responders (at least 100% reduction in mean monthly MPM headache days not met), (%)",[4],(80.3) %
same,"Non-responders (at least 100% reduction in mean monthly MPM headache days not met), n",[4],57
same,"Odds ratio vs. Placebo, at least 100% reduction in mean monthly MPM headache days",[4],2.26
same,"Responders (at least 100% reduction in mean monthly MPM headache days), (%)",[4],(19.7) %
same,"Responders (at least 100% reduction in mean monthly MPM headache days), n",[4],14
same,"Non-responders (at least 100% reduction in mean monthly MPM headache days not met), (%)",[5],(73.3) %
same,"Non-responders (at least 100% reduction in mean monthly MPM headache days not met), n",[5],121
same,"Odds ratio vs. Placebo, at least 100% reduction in mean monthly MPM headache days",[5],3.26
same,"Responders (at least 100% reduction in mean monthly MPM headache days), (%)",[5],(26.7) %
same,"Responders (at least 100% reduction in mean monthly MPM headache days), n",[5],44
same,"Non-responders (at least 100% reduction in mean monthly MPM headache days not met), (%)",[6],(73.8) %
same,"Non-responders (at least 100% reduction in mean monthly MPM headache days not met), n",[6],59
same,"Odds ratio vs. Placebo, at least 100% reduction in mean monthly MPM headache days",[6],3.25
same,"Responders (at least 100% reduction in mean monthly MPM headache days), (%)",[6],(26.3) %
same,"Responders (at least 100% reduction in mean monthly MPM headache days), n",[6],21
same,"Non-responders (at least 100% reduction in mean monthly MPM headache days not met), (%)",[7],(79.9) %
same,"Non-responders (at least 100% reduction in mean monthly MPM headache days not met), n",[7],135
same,"Odds ratio vs. Placebo, at least 100% reduction in mean monthly MPM headache days",[7],2.31
same,"Responders (at least 100% reduction in mean monthly MPM headache days), (%)",[7],(20.1) %
same,"Responders (at least 100% reduction in mean monthly MPM headache days), n",[7],34
same,"Non-responders (at least 100% reduction in mean monthly MPM headache days not met), (%)",[8],(79.8) %
same,"Non-responders (at least 100% reduction in mean monthly MPM headache days not met), n",[8],67
same,"Odds ratio vs. Placebo, at least 100% reduction in mean monthly MPM headache days",[8],1.43
same,"Responders (at least 100% reduction in mean monthly MPM headache days), (%)",[8],(20.02) %
same,"Responders (at least 100% reduction in mean monthly MPM headache days), n",[8],17
same,"Non-responders (at least 100% reduction in mean monthly MPM headache days not met), (%)",[9],(71.0) %
same,"Non-responders (at least 100% reduction in mean monthly MPM headache days not met), n",[9],49
same,"Odds ratio vs. Placebo, at least 100% reduction in mean monthly MPM headache days",[9],2.42
same,"Responders (at least 100% reduction in mean monthly MPM headache days), (%)",[9],(29.0) %
same,"Responders (at least 100% reduction in mean monthly MPM headache days), n",[9],20
same,"Non-responders (at least 100% reduction in mean monthly MPM headache days not met), (%)",[10],(77.0) %
same,"Non-responders (at least 100% reduction in mean monthly MPM headache days not met), n",[10],117
same,"Odds ratio vs. Placebo, at least 100% reduction in mean monthly MPM headache days",[10],1.72
same,"Responders (at least 100% reduction in mean monthly MPM headache days), (%)",[10],(23.0) %
same,"Responders (at least 100% reduction in mean monthly MPM headache days), n",[10],35
same,"Non-responders (at least 100% reduction in mean monthly MPM headache days not met), (%)",[11],(67.6) %
same,"Non-responders (at least 100% reduction in mean monthly MPM headache days not met), n",[11],48
same,"Odds ratio vs. Placebo, at least 100% reduction in mean monthly MPM headache days",[11],2.59
same,"Responders (at least 100% reduction in mean monthly MPM headache days), (%)",[11],(32.4) %
same,"Responders (at least 100% reduction in mean monthly MPM headache days), n",[11],23
same,"Non-responders (at least 100% reduction in mean monthly MPM headache days not met), (%)",[12],(73.2) %
same,"Non-responders (at least 100% reduction in mean monthly MPM headache days not met), n",[12],120
same,"Odds ratio vs. Placebo, at least 100% reduction in mean monthly MPM headache days",[12],2.07
same,"Responders (at least 100% reduction in mean monthly MPM headache days), (%)",[12],(26.8) %
same,"Responders (at least 100% reduction in mean monthly MPM headache days), n",[12],44
